Reference: ChEMBL document CHEMBL1201862, “PubChem BioAssay data set” (2004)
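In this assay, cells in 96-well plates receive the compound at five concentrations for 48 hours. Endpoints are linearly interpolated between the surrounding concentrations. Here, GI50 denotes the concentration required for 50% inhibition of growth.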 The source made the active and inactive calls. No stated cut-off is given here; in the data, active = GI50 up to about 1.1 µM and inactive = higher.

Experiments:
Assay in all cases: NCI tumour cell line growth inhibition, 48 h
[1] = tested on: SK-MEL-28
[2] = tested on: LOX IMVI
[3] = tested on: NCI-H522
[4] = tested on: A498
[5] = tested on: HCT-15
[6] = tested on: MOLT-4
[7] = tested on: DU-145
[8] = tested on: HCT-116
[9] = tested on: SF-295
[10] = tested on: MDA-N
[11] = tested on: OVCAR-3
[12] = tested on: KM12
[13] = tested on: TK-10
[14] = tested on: HCC 2998
[15] = tested on: RPMI-8226
[16] = tested on: M14
[17] = tested on: OVCAR-4
[18] = tested on: SK-MEL-2
[19] = tested on: UACC-62
[20] = tested on: MCF7

In the case of O=c1cc(N=P(c2ccccc2)(c2ccccc2)c2ccccc2)n(-c2ccccc2)c(=O)n1-c1ccccc1, the GI50 [1] is reported as 23.9 µM (inactive), the GI50 [2] is reported as 8.77 µM (inactive) and the GI50 [3] is reported as 14.4 µM (inactive). For the same compound, the GI50 [4] was 3.18 µM (inactive), the GI50 [5] was 3.38 µM and the GI50 [6] was 3.48 µM (inactive). The GI50 [7] was 9.51 µM (inactive), the GI50 [8] was 13.3 µM (inactive) and the GI50 [9] was 20.7 µM (inactive). The GI50 [10] was 7.64 µM (inactive), the GI50 [11] was 8.17 µM (inactive) and the GI50 [12] was 14.9 µM (inactive). For the same compound, the GI50 [13] was 15.2 µM (inactive), the GI50 [14] was 8.26 µM (inactive) and the GI50 [15] was 4.92 µM (inactive). For the same compound, the GI50 [16] was 8.79 µM (inactive), the GI50 [17] was 4.95 µM (inactive) and the GI50 [18] was 13.8 µM (inactive). The GI50 [19] was 11.4 µM (inactive) and the GI50 [20] was 6.03 µM (inactive).

With c1ccc(SCCc2ccncc2)cc1 the GI50 [1] was > 100 µM (inactive), the GI50 [2] was > 100 µM (inactive) and the GI50 [3] was 31 µM (inactive). For the same compound, the GI50 [4] was 70 µM (inactive), the GI50 [5] was greater than 100 µM and the GI50 [6] was 17.7 µM (inactive). The GI50 [7] was > 100 µM (inactive), the GI50 [8] was > 100 µM (inactive) and the GI50 [9] was 39.5 µM (inactive). For the same compound, the GI50 [10] was > 100 µM (inactive), the GI50 [11] was 40.6 µM (inactive) and the GI50 [12] was 78.7 µM (inactive). The GI50 [13] was > 100 µM (inactive), the GI50 [14] was > 100 µM (inactive) and the GI50 [15] was 20.5 µM (inactive). For the same compound, the GI50 [16] was 75 µM (inactive), the GI50 [17] was 98.2 µM (inactive) and the GI50 [18] was > 100 µM (inactive). For the same compound, the GI50 [19] was > 100 µM (inactive) and the GI50 [20] was 91.4 µM (inactive).

With Cc1ccc(/N=N\c2c(O)c(S(=O)(=O)O)cc3cc(S(=O)(=O)O)ccc23)c(C)c1 the GI50 [1] was > 100 µM (inactive), the GI50 [2] was > 100 µM (inactive) and the GI50 [3] was > 100 µM (inactive). The GI50 [4] was > 100 µM (inactive), the GI50 [5] was greater than 100 µM and the GI50 [6] was > 100 µM (inactive). The GI50 [7] was > 100 µM (inactive), the GI50 [8] was > 100 µM (inactive) and the GI50 [9] was > 100 µM (inactive). The GI50 [10] was > 100 µM (inactive), the GI50 [11] was > 100 µM (inactive) and the GI50 [12] was > 100 µM (inactive). The GI50 [13] was > 100 µM (inactive), the GI50 [14] was > 100 µM (inactive) and the GI50 [15] was > 100 µM (inactive). The GI50 [16] was > 100 µM (inactive), the GI50 [17] was > 100 µM (inactive) and the GI50 [18] was > 100 µM (inactive). The GI50 [19] was > 100 µM (inactive) and the GI50 [20] was > 100 µM (inactive).

For CCOC(=O)c1c(N2CCCC2)[nH]c(=O)c(C(c2ccco2)c2c(O)c(C(=O)OCC)c(N3CCCC3)[nH]c2=O)c1O, the GI50 [1] was > 100 µM (inactive), the GI50 [2] was 37.4 µM (inactive) and the GI50 [3] was 84.9 µM (inactive). For the same compound, the GI50 [4] was > 100 µM (inactive), the GI50 [5] was greater than 100 µM and the GI50 [6] was > 100 µM (inactive). For the same compound, the GI50 [7] was > 100 µM (inactive), the GI50 [8] was > 100 µM (inactive) and the GI50 [9] was 40.3 µM (inactive). For the same compound, the GI50 [10] was > 100 µM (inactive), the GI50 [11] was > 100 µM (inactive) and the GI50 [12] was > 100 µM (inactive). For the same compound, the GI50 [13] was > 100 µM (inactive), the GI50 [14] was > 100 µM (inactive) and the GI50 [15] was 84.3 µM (inactive). For the same compound, the GI50 [16] was > 100 µM (inactive), the GI50 [17] was > 100 µM (inactive) and the GI50 [18] was > 100 µM (inactive). For the same compound, the GI50 [19] was > 100 µM (inactive) and the GI50 [20] was > 100 µM (inactive).

For CC(C)(Cc1ccccc1)NC1=NCCO1, the GI50 [1] was > 100 µM (inactive), the GI50 [2] was > 100 µM (inactive) and the GI50 [3] was > 100 µM (inactive). For the same compound, the GI50 [4] was > 100 µM (inactive), the GI50 [5] was greater than 100 µM and the GI50 [6] was > 100 µM (inactive). For the same compound, the GI50 [7] was > 100 µM (inactive), the GI50 [8] was > 100 µM (inactive) and the GI50 [9] was > 100 µM (inactive). The GI50 [10] was > 100 µM (inactive), the GI50 [11] was > 100 µM (inactive) and the GI50 [12] was > 100 µM (inactive). The GI50 [13] was > 100 µM (inactive), the GI50 [14] was > 100 µM (inactive) and the GI50 [15] was > 100 µM (inactive). The GI50 [16] was > 100 µM (inactive), the GI50 [17] was > 100 µM (inactive) and the GI50 [18] was > 100 µM (inactive). The GI50 [19] was > 100 µM (inactive) and the GI50 [20] was > 100 µM (inactive).

In the case of COc1cc(-c2[o+]c3cc(O)cc(OC4OC(CO)C(O)C(O)C4O)c3cc2OC2OC(CO)C(O)C(O)C2O)cc(OC)c1O (stereo not given), the GI50 [1] is reported as > 100 µM (inactive), the GI50 [2] is reported as > 100 µM (inactive) and the GI50 [3] is reported as > 100 µM (inactive). For the same compound, the GI50 [4] was > 100 µM (inactive), the GI50 [5] was greater than 100 µM and the GI50 [6] was > 100 µM (inactive). The GI50 [7] was > 100 µM (inactive), the GI50 [8] was > 100 µM (inactive) and the GI50 [9] was > 100 µM (inactive). The GI50 [10] was > 100 µM (inactive), the GI50 [11] was > 100 µM (inactive) and the GI50 [12] was > 100 µM (inactive). For the same compound, the GI50 [13] was > 100 µM (inactive), the GI50 [14] was > 100 µM (inactive) and the GI50 [15] was > 100 µM (inactive). The GI50 [16] was > 100 µM (inactive), the GI50 [17] was > 100 µM (inactive) and the GI50 [18] was > 100 µM (inactive). For the same compound, the GI50 [19] was > 100 µM (inactive) and the GI50 [20] was > 100 µM (inactive).

For Cc1occc1C(=S)Nc1ccc(Cl)c(/C=N/OC(C)C)c1, the GI50 [1] was 27 µM (inactive), the GI50 [2] was 16 µM (inactive) and the GI50 [3] was 12.7 µM (inactive). The GI50 [4] was 19.2 µM (inactive), the GI50 [5] was 17.4 µM and the GI50 [6] was 20.8 µM (inactive). For the same compound, the GI50 [7] was 24 µM (inactive), the GI50 [8] was 20.4 µM (inactive) and the GI50 [9] was 18.3 µM (inactive). The GI50 [10] was 20.8 µM (inactive), the GI50 [11] was 15.6 µM (inactive) and the GI50 [12] was 20 µM (inactive). For the same compound, the GI50 [13] was 25.5 µM (inactive), the GI50 [14] was 26.5 µM (inactive) and the GI50 [15] was 20 µM (inactive). The GI50 [16] was 23.3 µM (inactive), the GI50 [17] was 24.9 µM (inactive) and the GI50 [18] was 19.2 µM (inactive). For the same compound, the GI50 [19] was 14.5 µM (inactive) and the GI50 [20] was 19.1 µM (inactive).

O=C(c1ccc(-c2ccccc2)cc1)N(Cc1cccnc1)C(=S)N(Cc1cccnc1)C(=O)c1ccc(-c2ccccc2)cc1 was tested, and the GI50 [1] was > 100 µM (inactive), the GI50 [2] was > 100 µM (inactive) and the GI50 [3] was > 100 µM (inactive). The GI50 [4] was > 100 µM (inactive), the GI50 [5] was 87.3 µM and the GI50 [6] was 0.198 µM (active). For the same compound, the GI50 [7] was > 100 µM (inactive), the GI50 [8] was 63.8 µM (inactive) and the GI50 [9] was > 100 µM (inactive). The GI50 [10] was 43.5 µM (inactive), the GI50 [11] was > 100 µM (inactive) and the GI50 [12] was 56.6 µM (inactive). The GI50 [13] was > 100 µM (inactive), the GI50 [14] was > 100 µM (inactive) and the GI50 [15] was 3.56 µM (inactive). The GI50 [16] was 81.3 µM (inactive), the GI50 [17] was 32.7 µM (inactive) and the GI50 [18] was > 100 µM (inactive). For the same compound, the GI50 [19] was > 100 µM (inactive) and the GI50 [20] was 41.6 µM (inactive).

In the case of Nc1c(C(=O)c2ccc(Cl)c(Cl)c2)[nH]c(NCc2ccccc2)c1C(=S)Nc1ccccc1, the GI50 [1] is reported as 4.63 µM (inactive), the GI50 [2] is reported as 2.21 µM (inactive) and the GI50 [3] is reported as 4.83 µM (inactive). For the same compound, the GI50 [4] was 15.3 µM (inactive), the GI50 [5] was 2.51 µM and the GI50 [6] was 3.31 µM (inactive). The GI50 [7] was 15.3 µM (inactive), the GI50 [8] was 3.48 µM (inactive) and the GI50 [9] was 3.48 µM (inactive). For the same compound, the GI50 [10] was 3.64 µM (inactive), the GI50 [11] was 17.5 µM (inactive) and the GI50 [12] was 3.18 µM (inactive). The GI50 [13] was 17.8 µM (inactive), the GI50 [14] was 1.74 µM (inactive) and the GI50 [15] was 2.65 µM (inactive). For the same compound, the GI50 [16] was 3.56 µM (inactive), the GI50 [17] was 3.81 µM (inactive) and the GI50 [18] was 12.4 µM (inactive). For the same compound, the GI50 [19] was 14.3 µM (inactive) and the GI50 [20] was 2.47 µM (inactive).

CCc1nc2cc(/N=N/c3c(O)ccc4ccccc34)ccc2[nH]1 was tested, and the GI50 [1] was 20.3 µM (inactive), the GI50 [2] was 10.1 µM (inactive) and the GI50 [3] was 18.1 µM (inactive). The GI50 [4] was 21.5 µM (inactive), the GI50 [5] was 12.6 µM and the GI50 [6] was 7.98 µM (inactive). The GI50 [7] was 17 µM (inactive), the GI50 [8] was 15.5 µM (inactive) and the GI50 [9] was 20.8 µM (inactive). For the same compound, the GI50 [10] was 23.8 µM (inactive), the GI50 [11] was 16.4 µM (inactive) and the GI50 [12] was 11.2 µM (inactive). The GI50 [13] was 18.4 µM (inactive), the GI50 [14] was 14.6 µM (inactive) and the GI50 [15] was 10.5 µM (inactive). For the same compound, the GI50 [16] was 19.6 µM (inactive), the GI50 [17] was 14 µM (inactive) and the GI50 [18] was 19.8 µM (inactive). For the same compound, the GI50 [19] was 18.2 µM (inactive) and the GI50 [20] was 18.4 µM (inactive).
